Data as given in patent publication US20080003634A1, “Extended Primary Retinal Cell Culture and Stress Models, and Methods of Use” (ACUCELA, INC., priority 2003, published 2008).

Key:
[1] = test system: rhodopsin-expressing photoreceptors; test: A2E-induced stress, rhodopsin-labeled photoreceptor count in mature retinal cell culture; format: cell-based, Porcine
Excerpt: (§1) Porcine eyes were obtained from Kapowsin Meats, Inc. (Graham, Wash.). Eyes were enucleated, and muscle and tissue were cleaned away from the orbit. Eyes were cut in half along their equator and the neural retina was dissected from the anterior part of the eye in buffered saline solution, according to standard methods known in the art. Briefly, the retina, ciliary body, and vitreous were dissected away from the anterior half of the eye in one piece, and the retina was gently detached from the clear vitreous. Each retina was dissociated with papain (Worthington Biochemical Corporation, Lakewood, N.J.), followed by inactivation with fetal bovine serum (FBS) and addition of 134 Kunitz units/ml of DNaseI. […]
(§2) Cultures were analyzed by counting rhodopsin-labeled photoreceptors and NFM-labeled ganglion cells using an Olympus IX81 or CZX41 microscope (Olympus, Tokyo, Japan). Twenty fields of view were counted per coverslip with a 20× objective lens. Six coverslips were analyzed by this method for each condition in each experiment. Cells that were not exposed to any stressor were counted, and cells exposed to a stressor were normalized to the number of cells in the control. […]
(§3) Immunocytochemical analysis was performed and the data analyzed as described in Examples 1 and 2.

[2] = test system: NFM-expressing ganglion cells; test: A2E-induced stress, NFM-labeled ganglion cell count in mature retinal cell culture; format: cell-based, Porcine
Excerpt: as §1, §2, §3

[3] = test system: rhodopsin-expressing photoreceptors; test: EPO effect on photoreceptor survival under A2E stress in retinal cell culture; format: cell-based, Porcine; conditions: A2E 25 μM for 24 hours, no EPO; FIG. 13
Excerpt: as §1
Cultures were analyzed by counting rhodopsin-labeled photoreceptors and NFM-labeled ganglion cells using an Olympus IX81 or CZX41 microscope (Olympus, Tokyo, Japan). Twenty fields of view were counted per coverslip with a 20× objective lens. Six coverslips were analyzed by this method for each condition in each experiment. Cells that were not exposed to either EPO or to any stressor were counted, and cells exposed to a stressor with or without treatment with EPO were normalized to the number of cells in the control. […]

[4] = test system: bovine retinal pigment epithelial cells; conditions: bovine RPE cells; cited from earlier work

Compound	death of photoreceptor cells compared to photoreceptor cells not exposed to A2E ([1]; 20 μM A2E for 48 hours)	number of rhodopsin-expressing photoreceptors ([1]; varying concentrations of A2E (0, 10, 20, 40 μM), 24 hours, FIG. 7)	survival of ganglion cells ([2]; 20 μM A2E for 48 hours)	number of NFM-expressing ganglion cells versus no stress ([2]; 20 μM A2E, 24 hours, FIG. 8)	total live cell count of rhodopsin-expressing photoreceptors after stress versus before stress [3]	growth and replication of the cells [4]
CC(C=CC1=C(C)CCCC1(C)C)=CC=CC(C)=Cc1cc(C=CC=C(C)C=CC2=C(C)CCCC2(C)C)cc[n+]1CCO [A2E, N-retinylidene-N-retinyl-ethanolamine]	more than 90%	showed a dose response	not adversely affected	not statistically different	much smaller	–
c1ccc2c(c1)cc1ccc3cccc4ccc2c1c34 [benzo(a)pyrene]	–	–	–	–	–	appeared to inhibit growth and replication
